A word on the melting point: it is the temperature of the solid-liquid transition.

Compound `CCCCCc1ccc(-c2ccc(OCCCC)c(N)c2)cc1` registered a melting point of 38 °C.
With `O=C(NC1CN2CCC1CC2)c1cccc2c1CCC2` (racemic), the melting point came out at 158 °C.
For `CC(=O)O[C@@](Cn1cncn1)(c1ccc(F)cc1F)[C@@H](C)S(=O)(=O)Cl`, the melting point was 110 to 115 °C.
On to `O=C(O)C(CC1CCCC1)c1ccc(Cl)c([N+](=O)[O-])c1` (stereo not drawn), for which the melting point was in the range of 112 to 115 °C.
For the compound `C#CCN1C(=O)c2ccccc2C1OC` (stereo not drawn), the melting point fell in the range of 85 to 87 °C.
Compound `O=[N+]([O-])c1ccc2c(c1)ncn2-c1cccc(-c2nccs2)c1` yielded a melting point of 251 to 260 °C.
Compound `O=C(Nc1nccs1)c1c(C(F)F)nc2c(C(F)(F)F)cccc2c1O` returned a melting point of 226 °C.
Turning to `COC(=O)CNCCNC(=O)c1nc(Cl)c(N)nc1N`, the melting point was in the range of 145 to 146 °C.
In the case of `CCCCC1(N(C)C)CCC2(CC1)c1[nH]c3ccccc3c1CCN2C(=O)NCC` (stereo not drawn), the melting point is 182 to 184 °C.
As for `CCOP(=O)(C/C=C\CC1(C(=O)NCC(F)(F)F)c2ccccc2-c2ccccc21)OCC`, the melting point lay in the range of 88 to 91 °C.
The compound `CSc1ccc(CC2CCc3cc(OCCn4ccnc4)ccc3C2=O)cc1` (stereo not drawn) returned a melting point of 114 to 117 °C.
As for `CON1CCC2(CC1)C(=O)C(c1c(C)ccc(Cl)c1C)([N+](=O)[O-])C(=O)N2OC` (stereo not drawn), the melting point fell in the range of 94 to 97 °C.
With `O=C(COC1CCCCO1)c1ccccn1` (stereo not drawn), the melting point was 63 to 65 °C.
Consider `CN(C)n1c(C(F)(F)F)n[nH]c1=O`, for which the melting point came to 138 °C.
As for `Cc1oc(-c2ccccc2)nc1CCC(N)=S`, the figure is 167 to 168 °C; as for `CCOC(=O)Cc1c(C2CCCCC2)nn(-c2ccccc2)c1-c1ccccc1`, 176 to 178 °C.
Regarding `CCC(C(=O)O)c1ccccc1Br` (stereo not drawn), the melting point fell in the range of 37 to 39 °C.
Consider `CC1(C)OC2C(Br)=CC(CC(N)=O)C(Br)C2O1` (stereo not drawn), for which the melting point is 181 °C.
As for `COc1cccc2c(=O)c(OCC(=O)O)coc12`, the melting point fell in the range of 215 to 217 °C.
As to `NC(Cc1cccc2ccccc12)(C(=O)O)C1CC(C(=O)O)C1` (stereo not drawn), the melting point is 189 to 191 °C.
`COC(=O)NN=C(OC)OC` registered a melting point of 78.5 to 81.5 °C.
Regarding `COc1c(Cl)cc(N=C=S)cc1C(=O)Nc1c(C)cccc1C`, the melting point lay in the range of 191 to 192 °C.
In the case of `CC(=O)Nc1nc2c(Oc3cc(-c4ccc(C(F)(F)F)cc4NCc4cncn4C)ncn3)cccc2s1`, the melting point lay within 263 to 265 °C.
`CC1(C)C=C(c2cccnc2)c2cc(C#N)ccc2OC1` came in with a melting point of 150 °C.
`CC(=O)c1ccn2c(C)c(C)nc2c1N` registered a melting point of 195 to 197 °C.
In the case of `O=C(O)c1ccc(NCCOc2ccc(Cl)cc2Cl)cc1`, the melting point is 203 to 205 °C.
Take `O=C(Oc1ccc(N2c3ccccc3S(=O)(=O)c3ccccc32)cc1)c1ccccc1`: the melting point was in the range of 233 to 235 °C.
Consider `Cc1cc2c(=O)[nH][nH]c(=O)c2n1Cc1ccccc1`, for which the melting point is 322 to 324 °C.
For the compound `CO[C@H]1CC[C@H]([C@H]2CC[C@H](CCC3OCCO3)CC2)CC1`, the melting point came to 74 °C.
Compound `CS(=O)(=O)C(=C1CN(C(c2ccccc2)c2ccccc2)C1)c1ccccc1` gave a melting point of 210 °C.
To `Oc1ccc(Oc2ccc3ccccc3n2)cc1` belongs 177 °C.
To `CCN(CC)c1ccc(-c2ncccc2S(=O)(=O)Nc2ncc(C)nc2OC)cc1` belongs 115 to 117 °C; to `Cc1noc(NS(=O)(=O)c2nccs2)c1Cl`, 171 to 173 °C.
In the case of `COc1ccc(C(CN)C(CN)c2ccc(Cl)cc2)cc1` (stereo not drawn), the melting point was in the range of 124 to 127 °C.
Take `COC(=O)c1nc(N)sc1-c1ccc(SC)cc1`: the melting point was 184 to 185 °C.
Compound `COc1cccc2cc(SCCC(=O)O)n(C)c12` displayed a melting point of 120 to 122 °C.
Compound `CC1CN(C2=Nc3ccccc3Oc3ccccc32)C(C)CN1` (stereo not drawn) gave a melting point of 46 to 48 °C.
In the case of `Cc1ccc2c(c1)c1c(n2CCCl)C(=O)CCC1`, the melting point stood at 108 °C.
`COc1cc(OC)c2c(c1)N(Cc1ccccn1)C(=O)C21COc2cc3c(cc21)OCCO3` (stereo not drawn): the melting point lay within 187 to 188 °C.
`CC1(C)COc2c1cc(C=O)c(O)c2Br` displayed a melting point of 152 to 154 °C.
For the compound `Oc1ccnn1-c1c(Cl)cc(C(F)(F)F)cc1Cl`, the melting point was 223 to 225 °C.
To `CC1(C)CC(=O)Nc2cc3nc(-c4ccccc4)[nH]c3cc21` belongs 296 to 298 °C; to `Cn1c2cc(Cl)ncc2c(=O)n2nccc12`, over 300 °C; to `O=C(Nc1cc(-c2ccnc3c(C(=O)c4cccs4)cnn23)ccc1Cl)c1ccccc1`, 217 to 218 °C.
`CC1(C)CCC(C)(C)c2nc(C(=O)CBr)cnc21` yielded a melting point of over 300 °C.
On to `C=Cc1noc(C2=CCCN(C(=O)OC(C)(C)C)C2)n1`, for which the melting point is 81 to 82 °C.
As for `COc1ccc2c(Cc3c(Cl)cncc3Cl)nncc2c1C=CCCCc1ccccc1`, the figure is 121 to 123 °C; as for `COc1cc(Nc2nc3cccc(-c4ccc(CNC(C)=O)cc4)c3o2)cc(OC)c1OC`, 237 to 239 °C; as for `COC(COc1ccc(Oc2ccccc2)cc1)OC`, 76.7 °C.
For `N=C(Nc1ccccc1C(F)(F)F)NC12CC3CC(CC(C3)C1)C2`, the melting point is 259 to 260 °C.
The compound `Cc1cccc(Cn2c(NC3CCN(CCc4c(C)nc5ccccn5c4=O)CC3)nc3cccnc32)n1` had a melting point of 233 °C.
To `O=C(O)CCCSC=CS(=O)(=O)CCCC(=O)O` belongs 120 °C; to `O=C1C=C(Cl)C(=O)c2ccccc21`, 154 to 156 °C; to `O=C(CCc1ccccc1)Oc1n[nH]c(=O)c2nc3cc(Cl)ccc3c(O)c12`, over 300 °C.
Consider `O=C(Nc1ccc(-n2nc(C(F)(F)F)cc2C(F)(F)F)cc1)c1ccc(-n2cccc2)cc1`, for which the melting point lay in the range of 249 to 252 °C.
`COc1ccc(OC)c2c1C(=O)c1c(O)ccc(O)c1C2=O` displayed a melting point of 297 to 300 °C.
For the compound `CCOP(=O)(CSCCOn1cnc2c(N3C(=O)c4ccccc4C3=O)ncnc21)OCC`, the melting point was in the range of 115 to 116 °C.
The compound `CC(C)Oc1cccc(-c2ccc3cnc(Nc4ccc(C5CCN(CC(N)=O)CC5)cc4)nn23)c1` yielded a melting point of 233 to 235 °C.
To `O=C(F)c1c(Cl)ccc2cc(C(F)(F)F)cnc12` belongs 98 to 99 °C.
Regarding `O=C(O)C=NNc1ccc(C(F)(F)F)cc1`, the melting point was found to be 125 °C.
Compound `COc1ccc(N2CCN(N=O)CC2)cc1` registered a melting point of 94.5 °C.
To `Cc1c(Cl)cccc1S(=O)(=O)Nc1ccc2nccnc2c1` belongs 166 to 167 °C.
As for `Cc1cc(Br)c2c(c1)C(=O)C(=O)N2CCN(C(C)C)C(C)C`, the figure is 94 to 97 °C; as for `COc1cccc(-c2ccc3c(C(=O)Nc4cccnc4)c(OC)ccc3c2)c1`, 154 °C.
For `Cc1sc(N)nc1-c1cccc2ccccc12`, the melting point fell in the range of 194 to 195 °C.
`CCCCCN(CCC12CC3CC(CC(C3)C1)C2)C(=O)NCCCCc1ccncc1` showed a melting point of 74.1 to 78.1 °C.
With `CCOC(=O)C(C)(C)CCCCOc1cc(C)c(N=Nc2ccc([N+](=O)[O-])cc2)c(C)c1`, the melting point was 89 to 90 °C.
`CCc1cc(C#N)c(Cl)nc1C` yielded a melting point of 63 to 64 °C.
For the compound `CCOC(=O)c1c(S(N)=O)c2cc(C)ccc2n1C` (stereo not drawn), the melting point was 118 °C.
As for `CC(C)(C)OC(=O)NCCc1cccc(OCCC2Oc3ccccc3N(Cc3ccccc3Cl)C2=O)c1` (stereo not drawn), the figure is 61 to 65 °C; as for `Cc1cc(C2CC2)nc(NC(=O)NS(=O)(=O)c2cccc3c2OS(=O)(=O)C(C)C3)n1` (stereo not drawn), 216 to 217 °C; as for `CS(=O)(=O)OCC(Oc1ccc(F)c(C(N)=O)c1F)c1nc(-c2ccc(C(F)(F)F)cc2)c(Cl)o1` (stereo not drawn), 163 °C.
For the compound `CCCCCCCNC(=O)Nc1c(C(=O)NC2CCN(C(c3ccccc3)c3ccccc3)CC2)cccc1C(C)C`, the melting point is 209 to 212 °C.
As to `N#Cc1cnn2c1N(C(=O)CN1CCN(C(=O)Nc3cccc(C(F)(F)F)c3)CC1)CC=C2c1cccc(C(F)(F)F)c1`, the melting point fell in the range of 147 to 149 °C.
Compound `O=C(O)Cc1cc(Cl)ccc1OCCCc1ccccc1` had a melting point of 95 to 96.5 °C.
To `Oc1c(Br)c(Br)c(Cl)c(Br)c1Br` belongs 210 to 212 °C.
In turn, `O=C(Nc1n[nH]c(=S)s1)N[C@@H](Cc1ccccc1)C(=O)N1CCOCC1` displayed a melting point of 213 to 216 °C.
In turn, `N#Cc1ccc2c(c1)nc(/C=C/c1ccccc1)n2-c1ccccn1` registered a melting point of 172 to 173 °C.
As for `CCNCC(=O)Nc1c(Cc2nccc3ccccc23)ccc(OC)c1OC`, the melting point lay in the range of 107 to 108 °C.
`CC1=C2CCc3cc(C)ccc3N2CCC1=O` showed a melting point of 143 to 145 °C.
`CC(C(=O)O)c1ccc(-c2cn3ccccc3n2)cc1` (stereo not drawn) returned a melting point of 244 to 246 °C.
Turning to `CN1C(=N)N(c2ccccc2)CC1=O`, the melting point fell in the range of 169 to 170 °C.
Compound `O=C(CCS)NC1(C(=O)O)CCCC1` yielded a melting point of 127 to 128 °C.
`O=C(O)CCc1cnn2c(=O)[nH]cnc12` showed a melting point of 277 °C.
Consider `CCCCOc1cc(/C=C(\OC)C(=O)O)ccc1CCCc1ccc(OS(=O)(=O)CCCC)c(OC)c1`, for which the melting point was 72.5 °C.
Compound `O=C(O)C(=O)c1ccc(OCC(=O)N2CCN(c3ccccc3)CC2)cc1` returned a melting point of 188 to 192 °C.
Consider `COc1cc(OC)c(C(=O)C=Cc2ccc(C)cc2)c(OP(=O)(O)O)c1`, for which the melting point is 81 to 83 °C.
Consider `CC(=O)NCCc1cn(S(=O)(=O)c2ccc(C)cc2)c2ccc(OCCN3CCCCC3)cc12`, for which the melting point was in the range of 65 to 66 °C.
`COC(=O)N(CC(=O)O)C(=O)c1cccc2c(C(F)(F)F)c(OC)ccc12` returned a melting point of 148 to 150 °C.
For the compound `O=c1[nH]c2ccccc2c(=O)c2cc(Cl)ccc12`, the melting point fell in the range of 290 to 295 °C.
As for `CCc1ncnc(NC2CCC(c3ccc(Oc4ccc(C(F)(F)F)cn4)cc3)CC2)c1Cl` (stereo not drawn), the figure is 114 to 116 °C.
To `Nc1c(Br)cc(S(=O)(=O)Cl)cc1Br` belongs 153 to 155 °C; to `CC(C)OC(=N)c1sc2ccccc2c1O`, 208 °C.

These data come from a melting point compilation (Tetko et al.; mined from patent text by program, amines drawn as free bases though some values may be those of a salt).
